Measured values reported in PubChem BioAssay (NCI).
Several values for one entry are separate records, joined by “and”; a condition that tells them apart may be missing. Equal values may be shown once.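 At the GI50, growth is halved. At the TGI there is no net growth.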

Tests used:
Experiment in all cases: DTP human tumour cell line panel, 384-well format
786-0 renal = system: 786-0 renal
A498 renal = system: A498 renal
A549 NSCLC = system: A549 NSCLC
ACHN renal = system: ACHN renal
BT-549 breast = system: BT-549 breast
CAKI-1 renal = system: CAKI-1 renal
CCRF-CEM leukemia = system: CCRF-CEM leukemia
COLO 205 colon = system: COLO 205 colon
DU-145 prostate = system: DU-145 prostate
EKVX NSCLC = system: EKVX NSCLC
HCC-2998 colon = system: HCC-2998 colon
HCT-116 colon = system: HCT-116 colon
HCT-15 colon = system: HCT-15 colon
HL-60(TB) leukemia = system: HL-60(TB) leukemia
HOP-62 NSCLC = system: HOP-62 NSCLC
HOP-92 NSCLC = system: HOP-92 NSCLC
HS 578T breast = system: HS 578T breast
HT29 colon = system: HT29 colon
IGROV1 ovarian = system: IGROV1 ovarian
K-562 leukemia = system: K-562 leukemia
KM12 colon = system: KM12 colon
LOX IMVI melanoma = system: LOX IMVI melanoma
M14 melanoma = system: M14 melanoma
MALME-3M melanoma = system: MALME-3M melanoma
MCF7 breast = system: MCF7 breast
MDA-MB-231 breast = system: MDA-MB-231 breast
MDA-MB-435 melanoma = system: MDA-MB-435 melanoma
MDA-MB-468 breast = system: MDA-MB-468 breast
MOLT-4 leukemia = system: MOLT-4 leukemia
NCI-H226 lung = system: NCI-H226 lung
NCI-H23 lung = system: NCI-H23 lung
NCI-H322M lung = system: NCI-H322M lung
NCI-H460 NSCLC = system: NCI-H460 NSCLC
NCI-H522 lung = system: NCI-H522 lung
NCI/ADR-RES ovarian = system: NCI/ADR-RES ovarian
OVCAR-3 ovarian = system: OVCAR-3 ovarian
OVCAR-4 ovarian = system: OVCAR-4 ovarian
OVCAR-5 ovarian = system: OVCAR-5 ovarian
PC-3 prostate = system: PC-3 prostate
RPMI-8226 leukemia = system: RPMI-8226 leukemia
RXF 393 renal = system: RXF 393 renal
SF-268 CNS = system: SF-268 CNS
SF-295 CNS = system: SF-295 CNS
SF-539 CNS = system: SF-539 CNS
SK-MEL-2 melanoma = system: SK-MEL-2 melanoma
SK-MEL-28 melanoma = system: SK-MEL-28 melanoma
SK-MEL-5 melanoma = system: SK-MEL-5 melanoma
SK-OV-3 ovarian = system: SK-OV-3 ovarian
SN12C renal = system: SN12C renal
SNB-19 CNS = system: SNB-19 CNS
SNB-75 CNS = system: SNB-75 CNS
SR leukemia = system: SR leukemia
SW-620 colon = system: SW-620 colon
T-47D breast = system: T-47D breast
TK-10 renal = system: TK-10 renal
U251 glioblastoma = system: U251 glioblastoma
UACC-257 melanoma = system: UACC-257 melanoma
UACC-62 melanoma = system: UACC-62 melanoma
UO-31 renal = system: UO-31 renal

CC1Cc2ccccc2N1C(=O)Cc1nc(N2CCOCC2)cc(=O)[nH]1 (stereo not drawn)
GI50 ([…]-0 renal): 3.31 µM and 17.8 µM | TGI (786-0 renal): > 100 µM | GI50 (A498 renal): 0.286 µM and 1.34 µM | TGI (A498 renal): 2.47 µM and 7.74 µM | GI50 (A549 NSCLC): 16.2 µM and 32.4 µM | TGI (A549 NSCLC): > 100 µM | GI50 (ACHN renal): 5.56 µM and 17.4 µM | TGI (ACHN renal): > 100 µM | GI50 (BT-549 breast): 2.46 µM and 11.6 µM | TGI (BT-549 breast): 45.6 µM and > 100 µM | GI50 (CAKI-1 renal): 4.84 µM and 12.7 µM | TGI (CAKI-1 renal): > 100 µM | GI50 (CCRF-CEM leukemia): 23.1 µM and 61.7 µM | TGI (CCRF-CEM leukemia): > 100 µM | GI50 (COLO 205 colon): 53.8 µM and > 100 µM | TGI (COLO 205 colon): > 100 µM | GI50 (DU-145 prostate): 14.2 µM and 34.2 µM | TGI (DU-145 prostate): > 100 µM | GI50 (EKVX NSCLC): 5.5 µM and 15.9 µM | TGI (EKVX NSCLC): 38.9 µM and 98.9 µM | GI50 (HCC-2998 colon): 4.86 µM and 33 µM | TGI (HCC-2998 colon): 75.2 µM and > 100 µM | GI50 (HCT-116 colon): 16.3 µM and 52.1 µM | TGI (HCT-116 colon): > 100 µM | GI50 (HCT-15 colon): 24.1 µM and 37.9 µM | TGI (HCT-15 colon): > 100 µM | GI50 (HL-60(TB) leukemia): 3.35 µM and 10.3 µM | TGI (HL-60(TB) leukemia): 24.7 µM and > 100 µM | GI50 (HOP-62 NSCLC): 20.6 µM and 33.5 µM | TGI (HOP-62 NSCLC): > 100 µM | GI50 (HOP-92 NSCLC): 8.04 µM and 25.3 µM | TGI (HOP-92 NSCLC): > 100 µM | GI50 (HS 578T breast): 3.8 µM and 13.4 µM | TGI (HS 578T breast): 23.1 µM and 58.3 µM | GI50 (HT29 colon): 9.87 µM and 49.4 µM | TGI (HT29 colon): 29.7 µM and > 100 µM | GI50 (IGROV1 ovarian): 1.72 µM and 7.93 µM | TGI (IGROV1 ovarian): 7.96 µM and 32.8 µM | GI50 (K-562 leukemia): 37.8 µM and 78.3 µM | TGI (K-562 leukemia): > 100 µM | GI50 (KM12 colon): 13.5 µM and 72 µM | TGI (KM12 colon): 34.4 µM and > 100 µM | GI50 (LOX IMVI melanoma): 14.5 µM and 50.9 µM | TGI (LOX IMVI melanoma): 42.4 µM and > 100 µM | GI50 (M14 melanoma): > 100 µM and 71 µM | TGI (M14 melanoma): > 100 µM | GI50 (MALME-3M melanoma): 14.3 µM and 23.3 µM | TGI (MALME-3M melanoma): 97.1 µM and > 100 µM | GI50 (MCF7 breast): 3.23 µM and 14.9 µM | TGI (MCF7 breast): > 100 µM | GI50 (MDA-MB-231 breast): 22.5 µM and 51.2 µM | TGI (MDA-MB-231 breast): > 100 µM | GI50 (MDA-MB-435 melanoma): > 100 µM and 85.3 µM | TGI (MDA-MB-435 melanoma): > 100 µM | GI50 (MDA-MB-468 breast): 3.31 µM and 15.1 µM | TGI (MDA-MB-468 breast): 17.7 µM and 65.7 µM | GI50 (MOLT-4 leukemia): 4.69 µM and 15 µM | TGI (MOLT-4 leukemia): 20.4 µM and 41 µM | GI50 (NCI-H226 lung): 63.2 µM and 65.3 µM | TGI (NCI-H226 lung): > 100 µM | GI50 (NCI-H23 lung): 37.6 µM and > 100 µM | TGI (NCI-H23 lung): > 100 µM | GI50 (NCI-H322M lung): 12.5 µM and 38.2 µM | TGI (NCI-H322M lung): 99.7 µM and > 100 µM | GI50 (NCI-H460 NSCLC): 8.38 µM and 29.9 µM | TGI (NCI-H460 NSCLC): > 100 µM | GI50 (NCI-H522 lung): 25.2 µM and 57.7 µM | TGI (NCI-H522 lung): > 100 µM | GI50 (NCI/ADR-RES ovarian): > 100 µM | TGI (NCI/ADR-RES ovarian): > 100 µM | GI50 (OVCAR-3 ovarian): 2.41 µM and 8.56 µM | TGI (OVCAR-3 ovarian): 24.6 µM and > 100 µM | GI50 (OVCAR-4 ovarian): > 100 µM and 74.9 µM | TGI (OVCAR-4 ovarian): > 100 µM | GI50 (OVCAR-5 ovarian): 18.9 µM and 58.3 µM | TGI (OVCAR-5 ovarian): > 100 µM | GI50 (PC-3 prostate): 1.86 µM and 4.92 µM | TGI (PC-3 prostate): > 100 µM | GI50 (RPMI-8226 leukemia): 11.8 µM and 36.3 µM | TGI (RPMI-8226 leukemia): 24.9 µM and > 100 µM | GI50 (RXF 393 renal): 0.266 µM and 1.16 µM | TGI (RXF 393 renal): 3.44 µM and 15 µM | GI50 (SF-268 CNS): 18.5 µM and 49.8 µM | TGI (SF-268 CNS): > 100 µM | GI50 (SF-295 CNS): 5.17 µM and 17.9 µM | TGI (SF-295 CNS): > 100 µM | GI50 (SF-539 CNS): 22.4 µM and 59.7 µM | TGI (SF-539 CNS): > 100 µM | GI50 (SK-MEL-2 melanoma): 63.2 µM and > 100 µM | TGI (SK-MEL-2 melanoma): > 100 µM | GI50 (SK-MEL-28 melanoma): 6.88 µM and 26.8 µM | TGI (SK-MEL-28 melanoma): > 100 µM | GI50 (SK-MEL-5 melanoma): 20.2 µM and 33.2 µM | TGI (SK-MEL-5 melanoma): > 100 µM | GI50 (SK-OV-3 ovarian): 8.17 µM and 16.2 µM | TGI (SK-OV-3 ovarian): > 100 µM | GI50 (SN12C renal): 4.74 µM and 22.6 µM | TGI (SN12C renal): > 100 µM | GI50 (SNB-19 CNS): > 100 µM | TGI (SNB-19 CNS): > 100 µM | GI50 (SNB-75 CNS): 0.561 µM and 3.1 µM | TGI (SNB-75 CNS): 25.4 µM and 40.2 µM | GI50 (SR leukemia): 14.3 µM and 21.4 µM | TGI (SR leukemia): 28.4 µM and 62.9 µM | GI50 (SW-620 colon): 64.3 µM and > 100 µM | TGI (SW-620 colon): > 100 µM | GI50 (T-47D breast): 3.31 µM and 11.2 µM | TGI (T-47D breast): 65 µM and 75.2 µM | GI50 (TK-10 renal): 7.25 µM and 25.3 µM | TGI (TK-10 renal): > 100 µM | GI50 (U251 glioblastoma): 67.8 µM and > 100 µM | TGI (U251 glioblastoma): > 100 µM | GI50 (UACC-257 melanoma): 47.9 µM and > 100 µM | TGI (UACC-257 melanoma): > 100 µM | GI50 (UACC-62 melanoma): 9.61 µM and 32.7 µM | TGI (UACC-62 melanoma): > 100 µM | GI50 (UO-31 renal): 4.59 µM and 14 µM | TGI (UO-31 renal): > 100 µM and 45.6 µM
